Assay results from patent US20240228448A1 (Washington University, priority 2021, published 2024).
Several values for one entry are separate records, joined by “and”; a condition that tells them apart may be missing. Equal values may be shown once.

Assays:
[1] = MicroPET brain study in cynomolgus macaque; details: macaque brain
Protocol: Using a Focus 220 microPET scanner to collect dynamic scans for 2 hours after intravenous injection of ˜0.35 GBq dose into male macaques. Radiometabolites were measured from arterial blood samples collected at 5, 15, 30, and 60 min post-injection of radiotracer. The HPLC eluent was collected, and fractions were counted in a gamma counter.
Male macaques (˜10 kg) were used for PET imaging data acquisition with a microPET Focus 220 scanner (Siemens Inc., Knoxville, TN). Animals were anesthetized using ketamine and glycopyrrolate and maintained with inhalation of isoflurane. Core temperature was kept at 37° C. with a heated water blanket. The head was secured in a customized head holder. […] Emission data were corrected for dead time, scatter, and attenuation and then reconstructed. […] Predefined brain regions of interest from the template were applied to the co-registered PET image to obtain regional time-activity curves. The measurement of the brain uptake of radiotracer was standardized to body weight and the dose of radioactivity injected to yield a standardized uptake value (SUV).
The brain uptakes of these tracers were measured by Focus 220 microPET scanner to collect dynamic scans for 2 hours after intravenous injection of ˜0.35 GBq dose into male cynomolgus macaques (8-9 kg).

[2] = Ex vivo biodistribution study in Sprague Dawley rats; details: SD rats
Protocol: To evaluate the kinetics and the tissue distribution of [^18F]FS1P1 in rodents, Sprague Dawley (SD) male rats (6-7 weeks old; 200-300 g) were used and euthanized at 5, 30, 60, and 120 min post-injection. The radioactivity uptake of each organ was calculated as percentage injected dose per gram (% ID/gram). As shown in FIG. 7A-FIG. 7B, the initial tracer uptake was high in most tissues at 5 min. The liver had the highest uptake (% ID/g) at 3.04±0.18, whereas the heart, lung, spleen, kidney, and small intestine had moderate to high uptake at 1.39±0.15, 1.44±0.13, 1.14±0.13, 1.76±0.15, and 1.00±0.21 respectively. The radioactivity was rapidly washed out from heart, lung, pancreas, spleen, kidney, and liver, at 30 min post injection with ID %/g values decreasing to 0.55±0.02, 0.84±0.05, 0.66±0.04, 0.54±0.03, 1.13±0.66, and 2.51±0.10 respectively as shown in FIG. 7A.
A dose of [^18F]FS1P1 (˜3.7 MBq/100 μL) was injected via the tail vein into SD rats (male; 6-7 weeks old; 200-300 g). Rats were euthanized under anesthesia at 5, 30, 60, and 120 min post-injection (n=4 per group). Tissues of interest including blood, heart, lung, muscle, fat, pancreas, spleen, kidney, liver, brain, bone, thymus, small intestine, and large intestine were collected, weighed, and counted on an automated Beckman Gamma counter (Beckman, Brea, CA). To evaluate the uptake of [^18F]FS1P1 within the brain, brain dissection was performed and different brain regions including brain stem, cerebellum, cortex, striatum, thalamus, and hippocampus were collected and evaluated. The uptake of each organ was calculated and expressed as a percentage of the injection dose per gram of wet tissue (% ID per gram).

S1P1 = target: T1, S1P1 (Rattus norvegicus, UniProt P48303); assay: In vitro autoradiography of rat spinal cord and brain sections with CS1P1 blocking; assay type: binding; details: blocked by CS1P1 (5 μM), in words
T1 construct: conducted on rat spinal cord and brain section incubated with [^18F]FS1P1; from tissue; host or cells: rat brain (cortex, hippocampus) and spinal cord sections

[3] = Radiometabolite analysis of nonhuman primate plasma samples; assay type: in vivo, macaque; details: for percentage of the parental radiotracer of total radioactivity: macaque plasma
Protocol: HPLC radiometabolite analysis of the macaque plasma samples collected at different time points post-injection of [^18F]FS1P1 was performed as previously reported (H. Liu, et al., Mol. Imaging Biol., 2020, 22, 1362-1369.). A male macaque (˜10 kg) was intravenously injected with ˜0.35 GBq of [^18F]FS1P1. […] Plasma (400 μL) was then collected and mixed with 1.2 mL ice-cold acetonitrile to deproteinize. […] The eluted fractions were collected at one-minute intervals for a total of 16 minutes, the radioactivity of each fraction collection was counted in an automated gamma counter (Beckman, Brea, CA), and results were corrected by background radioactive counts and physical decay. The chromatography was regenerated represented by the percentage that was calculated by radioactivity count of every minute collection divided by the total injection amount on the HPLC system and multiplied by 100.

T1 sequence (P48303 whole entry): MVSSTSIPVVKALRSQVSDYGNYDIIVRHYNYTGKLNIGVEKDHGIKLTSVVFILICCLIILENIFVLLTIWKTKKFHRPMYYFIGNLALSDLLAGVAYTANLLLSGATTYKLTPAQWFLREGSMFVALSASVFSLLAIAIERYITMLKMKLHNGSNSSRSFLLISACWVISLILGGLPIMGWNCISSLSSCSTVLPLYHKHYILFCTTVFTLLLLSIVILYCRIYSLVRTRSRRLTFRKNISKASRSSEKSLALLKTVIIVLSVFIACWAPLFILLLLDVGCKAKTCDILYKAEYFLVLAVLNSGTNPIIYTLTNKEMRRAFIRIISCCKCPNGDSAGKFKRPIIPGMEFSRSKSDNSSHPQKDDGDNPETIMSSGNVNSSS

Cc1ccccc1-c1ccc(-c2nc(-c3ccc(CN(C)CCC(=O)O)c([18F])c3)no2)cc1C(F)(F)F [[^18F]FS1P1]
brain uptake, standard uptake value (SUV) ([1]; 120 min post-injection): ~2.3
brain uptake, maximum SUV value ([1]; from 20 to 120 min post-injection): ~2.3
Tissue uptake (% ID/g) ([2]; Blood, 5 min post-injection): 0.16 ± 0.09 % ID/g
Tissue uptake (% ID/g) ([2]; Blood, 30 min post-injection): 0.13 ± 0.01 % ID/g
Tissue uptake (% ID/g) ([2]; Blood, 60 min post-injection): 0.13 ± 0.01 % ID/g
Tissue uptake (% ID/g) ([2]; Blood, 120 min post-injection): 0.10 ± 0.01 % ID/g
Tissue uptake (% ID/g) ([2]; Bone, 5 min post-injection): 0.20 ± 0.13 % ID/g
Tissue uptake (% ID/g) ([2]; Bone, 30 min post-injection): 0.16 ± 0.01 % ID/g
Tissue uptake (% ID/g) ([2]; Bone, 60 min post-injection): 0.15 ± 0.02 % ID/g
Tissue uptake (% ID/g) ([2]; Bone, 120 min post-injection): 0.11±0.02 % ID/g
Tissue uptake (% ID/g) ([2]; Brain stem, 5 min post-injection): 0.48 ± 0.14 % ID/g
Tissue uptake (% ID/g) ([2]; Brain stem, 30 min post-injection): 0.52 ± 0.03 % ID/g
Tissue uptake (% ID/g) ([2]; Brain stem, 60 min post-injection): 0.68 ± 0.07 % ID/g
Tissue uptake (% ID/g) ([2]; Brain stem, 120 min post-injection): 0.71 ± 0.11 % ID/g
Tissue uptake (% ID/g) ([2]; Cerebellum, 5 min post-injection): 0.42 ± 0.28 % ID/g
Tissue uptake (% ID/g) ([2]; Cerebellum, 30 min post-injection): 0.52 ± 0.05 % ID/g
Tissue uptake (% ID/g) ([2]; Cerebellum, 60 min post-injection): 0.66 ± 0.07 % ID/g
Tissue uptake (% ID/g) ([2]; Cerebellum, 120 min post-injection): 0.77 ± 0.12 % ID/g
Tissue uptake (% ID/g) ([2]; Cortex, 5 min post-injection): 0.35 ± 0.25 % ID/g
Tissue uptake (% ID/g) ([2]; Cortex, 30 min post-injection): 0.51 ± 0.07 % ID/g
Tissue uptake (% ID/g) ([2]; Cortex, 60 min post-injection): 0.59 ± 0.13 % ID/g
Tissue uptake (% ID/g) ([2]; Cortex, 120 min post-injection): 0.67 ± 0.10 % ID/g
Tissue uptake (% ID/g) ([2]; Fat, 5 min post-injection): 0.05 ± 0.03 % ID/g
Tissue uptake (% ID/g) ([2]; Fat, 30 min post-injection): 0.16 ± 0.02 % ID/g
Tissue uptake (% ID/g) ([2]; Fat, 60 min post-injection): 0.15 ± 0.02 % ID/g
Tissue uptake (% ID/g) ([2]; Fat, 120 min post-injection): 0.14 ± 0.02 % ID/g
Tissue uptake (% ID/g) ([2]; Heart, 5 min post-injection): 1.02 ± 0.69 % ID/g
Tissue uptake (% ID/g) ([2]; Heart, 30 min post-injection): 0.55±0.02 % ID/g and 0.54 ± 0.03 % ID/g
Tissue uptake (% ID/g) ([2]; Heart, 60 min post-injection): 0.49 ± 0.02 % ID/g
Tissue uptake (% ID/g) ([2]; Heart, 120 min post-injection): 0.39 ± 0.07 % ID/g
Tissue uptake (% ID/g) ([2]; Hippocampus, 5 min post-injection): 0.32 ± 0.21 % ID/g
Tissue uptake (% ID/g) ([2]; Hippocampus, 30 min post-injection): 0.41 ± 0.03 % ID/g
Tissue uptake (% ID/g) ([2]; Hippocampus, 60 min post-injection): 0.54 ± 0.03 % ID/g
Tissue uptake (% ID/g) ([2]; Hippocampus, 120 min post-injection): 0.42 ± 0.28 % ID/g
Tissue uptake (% ID/g) ([2]; Kidney, 5 min post-injection): 1.33 ± 0.87 % ID/g
Tissue uptake (% ID/g) ([2]; Kidney, 30 min post-injection): 1.13±0.66 % ID/g and 1.13 ± 0.13 % ID/g
Tissue uptake (% ID/g) ([2]; Kidney, 60 min post-injection): 1.10 ± 0.08 % ID/g
Tissue uptake (% ID/g) ([2]; Kidney, 120 min post-injection): 1.02 ± 0.17 % ID/g
Tissue uptake (% ID/g) ([2]; Liver, 5 min post-injection): 2.30 ± 1.50 % ID/g
Tissue uptake (% ID/g) ([2]; Liver, 30 min post-injection): 2.51±0.10 % ID/g and 2.51 ± 0.20 % ID/g
Tissue uptake (% ID/g) ([2]; Liver, 60 min post-injection): 2.32 ± 0.10 % ID/g
Tissue uptake (% ID/g) ([2]; Liver, 120 min post-injection): 2.08 ± 0.47 % ID/g
Tissue uptake (% ID/g) ([2]; Lung, 5 min post-injection): 1.08 ± 0.74 % ID/g
Tissue uptake (% ID/g) ([2]; Lung, 30 min post-injection): 0.84±0.05 % ID/g and 0.84 ± 0.09 % ID/g
Tissue uptake (% ID/g) ([2]; Lung, 60 min post-injection): 0.68 ± 0.04 % ID/g
Tissue uptake (% ID/g) ([2]; Lung, 120 min post-injection): 0.43 ± 0.30 % ID/g
Tissue uptake (% ID/g) ([2]; Muscle, 5 min post-injection): 0.11 ± 0.07 % ID/g
Tissue uptake (% ID/g) ([2]; Muscle, 30 min post-injection): 0.19 ± 0.01 % ID/g
Tissue uptake (% ID/g) ([2]; Muscle, 60 min post-injection): 0.18 ± 0.05 % ID/g
Tissue uptake (% ID/g) ([2]; Muscle, 120 min post-injection): 0.15 ± 0.02 % ID/g
Tissue uptake (% ID/g) ([2]; Pancreas, 5 min post-injection): 0.72 ± 0.47 % ID/g
Tissue uptake (% ID/g) ([2]; Pancreas, 30 min post-injection): 0.66±0.04 % ID/g and 0.66 ± 0.08 % ID/g
Tissue uptake (% ID/g) ([2]; Pancreas, 60 min post-injection): 0.52 ± 0.05 % ID/g
Tissue uptake (% ID/g) ([2]; Pancreas, 120 min post-injection): 0.43 ± 0.06 % ID/g
in vivo defluorination (bone uptake 5 to 120 min) ([2]; in words): no defluorination
Tissue uptake (% ID/g) ([2]; Small intestine, 5 min post-injection): 0.75 ± 0.57 % ID/g
Tissue uptake (% ID/g) ([2]; Small intestine, 30 min post-injection): 1.40 ± 0.36 % ID/g
Tissue uptake (% ID/g) ([2]; Small intestine, 60 min post-injection): 1.42 ± 0.36 % ID/g
Tissue uptake (% ID/g) ([2]; Small intestine, 120 min post-injection): 0.87 ± 0.21 % ID/g
Tissue uptake (% ID/g) ([2]; Spleen, 5 min post-injection): 0.86 ± 0.58 % ID/g
Tissue uptake (% ID/g) ([2]; Spleen, 30 min post-injection): 0.54±0.03 % ID/g and 0.54 ± 0.06 % ID/g
Tissue uptake (% ID/g) ([2]; Spleen, 60 min post-injection): 0.47 ± 0.05 % ID/g
Tissue uptake (% ID/g) ([2]; Spleen, 120 min post-injection): 0.37 ± 0.05 % ID/g
Tissue uptake (% ID/g) ([2]; Striatum, 5 min post-injection): 0.32 ± 0.21 % ID/g
Tissue uptake (% ID/g) ([2]; Striatum, 30 min post-injection): 0.46 ± 0.05 % ID/g
Tissue uptake (% ID/g) ([2]; Striatum, 60 min post-injection): 0.43 ± 0.29 % ID/g
Tissue uptake (% ID/g) ([2]; Striatum, 120 min post-injection): 0.67 ± 0.07 % ID/g
Tissue uptake (% ID/g) ([2]; Thymus, 5 min post-injection): 0.23 ± 0.16 % ID/g
Tissue uptake (% ID/g) ([2]; Thymus, 30 min post-injection): 0.30 ± 0.03 % ID/g
Tissue uptake (% ID/g) ([2]; Thymus, 60 min post-injection): 0.30 ± 0.04 % ID/g
Tissue uptake (% ID/g) ([2]; Thymus, 120 min post-injection): 0.31 ± 0.05 % ID/g
rat brain uptake ([2]; 5 min post-injection): 0.48±0.06 ID %/g
rat brain uptake ([2]; 30 min post-injection): 0.48±0.02 ID %/g
rat brain uptake ([2]; 60 min post-injection): 0.60±0.04 ID %/g
rat brain uptake ([2]; 120 min post-injection): 0.65±0.03 ID %/g
Tissue uptake (% ID/g) ([2]; thalamus, 5 min post-injection): 0.42 ± 0.31 % ID/g
Tissue uptake (% ID/g) ([2]; thalamus, 30 min post-injection): 0.53 ± 0.03 % ID/g
Tissue uptake (% ID/g) ([2]; thalamus, 60 min post-injection): 0.64 ± 0.06 % ID/g
Tissue uptake (% ID/g) ([2]; thalamus, 120 min post-injection): 0.70 ± 0.15 % ID/g
Tissue uptake (% ID/g) ([2]; total brain, 5 min post-injection): 2.65 ± 1.63 % ID/g
Tissue uptake (% ID/g) ([2]; total brain, 30 min post-injection): 3.41 ± 0.29 % ID/g
Tissue uptake (% ID/g) ([2]; total brain, 60 min post-injection): 4.12 ± 0.70 % ID/g
Tissue uptake (% ID/g) ([2]; total brain, 120 min post-injection): 4.58 ± 0.92 % ID/g
autoradiography signal and blocking (S1P1): strong signal, which was blocked
radiometabolites in macaque plasma ([3]; 5, 15, 30, and 60 min post injection, in words): No major metabolite was detected
percentage of the parental radiotracer of total radioactivity ([3]; 5 min post-injection): 96%
percentage of the parental radiotracer of total radioactivity ([3]; 15 min post-injection): 96%
percentage of the parental radiotracer of total radioactivity ([3]; 30 min post-injection): 94%
percentage of the parental radiotracer of total radioactivity ([3]; 60 min post-injection): 88%
